The text below walks through data of article PMC8102459, “3,3′-Thiodipropionic acid (TDP), a possible precursor for the synthesis of polythioesters: identification of TDP transport proteins in Variovorax paradoxus TBEA6” (Applied Microbiology and Biotechnology, 2021).

Common to all, as to test: thermal shift assay, SYPRO Orange, real-time PCR
Holding throughout (assay type): binding
In general terms: Real-time PCR tracks product formation cycle by cycle.

The target in test [1] is T1, TctC-44430 (TctC, locus tag VPARA-44430) (Variovorax paradoxus, UniProt A0A0H2LXQ8).
T1 construct: gene VPARA_44430; His-tagged (pET19b N-terminal; pET23a C-terminal also made), E. coli BL21
T1 sequence (A0A0H2LXQ8 1-329 limits assumed): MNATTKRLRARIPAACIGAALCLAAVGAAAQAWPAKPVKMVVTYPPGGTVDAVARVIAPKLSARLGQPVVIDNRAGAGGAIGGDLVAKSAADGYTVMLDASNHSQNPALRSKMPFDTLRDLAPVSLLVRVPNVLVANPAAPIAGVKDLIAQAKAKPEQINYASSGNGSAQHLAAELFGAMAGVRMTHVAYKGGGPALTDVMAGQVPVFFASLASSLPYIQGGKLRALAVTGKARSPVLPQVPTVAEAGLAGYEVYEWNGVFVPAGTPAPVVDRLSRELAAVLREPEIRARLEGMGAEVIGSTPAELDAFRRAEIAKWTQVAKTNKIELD
The conditions noted are these: 1 μM protein, sodium phosphate pH 7.4; value is the melting temperature, not the shift; control Tm not given.

Test [2] deals with T2, TctC protein with locus tag VPARA-01760 (Variovorax paradoxus, UniProt A0A0H2MDR2).
T2 construct: gene VPARA_01760; His-tagged (pET19b or pET23a)
T2 sequence (A0A0H2MDR2 1-326 limits assumed): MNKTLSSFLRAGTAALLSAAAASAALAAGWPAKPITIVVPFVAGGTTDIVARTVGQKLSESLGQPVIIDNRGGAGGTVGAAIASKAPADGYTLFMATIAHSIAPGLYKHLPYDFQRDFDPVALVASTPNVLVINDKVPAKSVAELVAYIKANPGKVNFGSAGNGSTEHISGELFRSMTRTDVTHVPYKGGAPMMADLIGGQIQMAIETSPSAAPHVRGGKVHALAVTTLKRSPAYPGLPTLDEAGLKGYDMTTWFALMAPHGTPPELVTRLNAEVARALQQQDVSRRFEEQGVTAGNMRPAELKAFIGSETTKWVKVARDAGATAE
The conditions noted are these: 1 μM protein, sodium phosphate pH 7.4, 0.1 to 3000 μM ligand.

The target of test [3] is T1, TctC-44430 (TctC, locus tag VPARA-44430). The conditions noted are these: 1 μM protein, sodium phosphate pH 7.4; value is the melting temperature, not the shift; control Tm not given. The source holds these as a separate data set.

As usually defined, the Tm is the temperature at the midpoint of the melting transition.

As for `O=C(O)[C@H](O)[C@@H](O)[C@H](O)[C@H](O)CO` [gluconate], in test [1], the “Tm at 3000 μM gluconate” value was 83 °C. For the same compound, the Tm shift entry in test [2] is on record as “VPARA-01760 also showed temperature shifts with TDP or gluconate”.

In the case of `O=C(O)CCSCCC(=O)O` [TDP, 3,3′-Thiodipropionic acid], the “Tm at 3000 μM TDP” value in test [3] turned out to be 56 °C. For the same compound, the Tm shift entry in test [2] was “VPARA-01760 also showed temperature shifts with TDP or gluconate”.
